The text below walks through data of patent US4342753A, “Carboxyalkyl derivatives of rutin poly(H-)sulfate” (American Cyanamid Company, priority 1981, dated 1982).

One assay concerns the target T1, activated human C1 (Homo sapiens, UniProt P09871).
T1 sequence (P09871 16-437 limits assumed): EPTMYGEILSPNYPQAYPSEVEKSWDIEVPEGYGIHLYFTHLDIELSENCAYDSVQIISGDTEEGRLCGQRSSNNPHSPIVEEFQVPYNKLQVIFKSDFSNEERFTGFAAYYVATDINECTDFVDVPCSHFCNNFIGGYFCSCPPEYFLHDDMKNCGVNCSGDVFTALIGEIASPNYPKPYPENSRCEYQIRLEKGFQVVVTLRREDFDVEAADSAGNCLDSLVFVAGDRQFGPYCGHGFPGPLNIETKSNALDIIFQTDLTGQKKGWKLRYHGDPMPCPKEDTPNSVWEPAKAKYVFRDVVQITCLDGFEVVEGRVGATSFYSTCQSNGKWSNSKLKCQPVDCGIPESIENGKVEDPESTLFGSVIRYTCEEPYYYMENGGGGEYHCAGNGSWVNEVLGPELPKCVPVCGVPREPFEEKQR
T1 sequence (P09871 438-688 limits assumed): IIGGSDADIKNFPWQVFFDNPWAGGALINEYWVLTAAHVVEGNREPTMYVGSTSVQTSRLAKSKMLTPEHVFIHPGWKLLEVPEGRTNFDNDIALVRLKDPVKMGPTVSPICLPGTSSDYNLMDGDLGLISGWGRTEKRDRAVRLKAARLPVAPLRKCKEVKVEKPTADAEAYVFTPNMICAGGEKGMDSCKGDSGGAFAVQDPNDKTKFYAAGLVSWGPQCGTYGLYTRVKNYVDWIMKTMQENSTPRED
The assay can be described thus: Test Code 026 (C1 inhibitor). To be noted: serial dilutions are twofold; higher well number indicates higher activity. It counts as biochemical. The procedure:
(§1) An active inhibitor protects C2 from C1 and C4; (ii) Cap 50 Test--Here, appropriate amounts of the test compound are added to a pool of guinea pig serum in vitro, after which the undiluted serum capillary tube assay referred to above is run. The concentration of compound inhibiting 50% is reported; and (iii) Guinea Pig Intraperitoneal Test (GPIP)--Guinea pigs weighing about 300 g. are dosed intraperitoneally (i.p.) with 200 mg./kg. of the test compound dissolved in saline and adjusted to pH 7-8. Approximately 0.4 ml. blood samples, taken by orbital sinus puncture 30 minutes and one hour after injections, are collected directly into centrifuge tubes; 5 ml. blood samples, taken by decapitation 2 hours after injection are collected directly into beakers. The samples are allowed to clot, centrifuged, and the resultant sera are assayed for complement activity using the capillary complement assay. Percent inhibition are calculated by comparison with simultaneous controls.

Assay [1] deals with complement activity of sera. The assay can be described thus: Guinea Pig Intraperitoneal Test (GPIP). To be noted: Cavia porcellus, ip, 200 mg./kg. i.p., read-out: In vivo Activity (Guinea Pig) Intraperitoneal % Inhibition. On the procedure: as §1, with “[…],” for “taken by orbital sinus puncture 30 minutes and one hour after injections,”, “taken by decapitation 2 hours after injection are collected directly into” left out

For another assay, the system named is human serum complement. To be noted: in vitro and in vivo; cited from earlier work.

Structures can show the parent of a compound that is named as a salt. Where two headings read alike, the source gives them in different places.

As usually defined, the inhibition is the change of the read-out against control, counted positive when it falls.

With `C[C@@H]1O[C@@H](OC[C@H]2O[C@@H](Oc3c(-c4ccc(OCC(=O)O)c(OS(=O)(=O)O)c4)oc4cc(OCC(=O)O)cc(OS(=O)(=O)O)c4c3=O)[C@H](OS(=O)(=O)O)[C@@H](OS(=O)(=O)O)[C@@H]2OS(=O)(=O)O)[C@H](OS(=O)(=O)O)[C@H](OS(=O)(=O)O)[C@H]1OS(=O)(=O)O` [4',7-Bis(carboxymethyl)rutin, octa(H-sulfate), decasodium salt], the “In vitro Activity 026 (activity in wells, serial dilution assay)” value at activated human C1 amounted to 11 wells.
For the molecule `C[C@@H]1O[C@@H](OC[C@H]2O[C@@H](Oc3c(-c4ccc(OCC(=O)O)c(OS(=O)(=O)O)c4)oc4cc(OS(=O)(=O)O)cc(OS(=O)(=O)O)c4c3=O)[C@H](OS(=O)(=O)O)[C@@H](OS(=O)(=O)O)[C@@H]2OS(=O)(=O)O)[C@H](OS(=O)(=O)O)[C@H](OS(=O)(=O)O)[C@H]1OS(=O)(=O)O` [4'-Carboxymethyl-rutin, nona(H-sulfate)decasodium salt], the “In vitro Activity 026 (activity in wells, serial dilution assay)” value on activated human C1 was found to be 10 wells. Besides, the inhibition at 200 mg/kg in assay [1] (Time 2 hours) came to 82%; in assay [1] (Time 6 hours), 69%; in assay [1] (Time 24 hours), 18%.
For pentosanpolysulfoester, the anticomplementary activity result with human serum complement is “has an anticomplementary activity on human serum, both in vitro and in vivo”.
